Reference: ChEMBL document CHEMBL4033729, “Penicillospirone from a marine isolate of Penicillium sp. (SF-5292) with anti-inflammatory activity” (Bioorg Med Chem Lett, 2017)
Calls of active or inactive are those of the source.

Legend:
Mus musculus [1] = species: Mus musculus; test: Inhibition of LPS-stimulated NFkappaB p65/p50 nuclear translocation in mouse RAW264.7 cells assessed as increase in cytosolic p65/p50 protein level at 10 to 40 uM pre-incubated for 3 hrs before LPS-stimulation for 60 mins by Western blot method; format: cell-based
RAW264.7 [2] = test: Anti-inflammatory activity in mouse RAW264.7 cells assessed as reduction in LPS-induced IL12 mRNA expression pre-incubated for 3 hrs before LPS-stimulation for 12 hrs by RT-qPCR method; format: functional, cell-based
RAW264.7 [3] = test: Cytotoxicity in mouse RAW264.7 cells at 10 to 80 uM by MTT assay; format: cell-based; settings: raw264.7, 80 µM
Mus musculus [4] = species: Mus musculus; test: Inhibition of LPS-stimulated NFkappaB signalling activation in mouse RAW264.7 cells assessed as reduction in IkappaB phosphorylation pre-incubated for 3 hrs before LPS-stimulation for 60 mins by Western blot method; format: cell-based
BV-2 [5] = test: Anti-inflammatory activity in mouse BV2 cells assessed as reduction in LPS-induced IL6 mRNA expression pre-incubated for 3 hrs before LPS-stimulation for 12 hrs by RT-qPCR method; format: functional, cell-based
BV-2 [6] = test: Anti-inflammatory activity in mouse BV2 cells assessed as reduction in LPS-induced PGE2 production pre-incubated for 3 hrs before LPS-stimulation for 24 hrs; format: functional, cell-based
RAW264.7 [7] = test: Anti-inflammatory activity in mouse RAW264.7 cells assessed as reduction in LPS-induced IL-1beta mRNA expression pre-incubated for 3 hrs before LPS-stimulation for 12 hrs by RT-qPCR method; format: functional, cell-based
RAW264.7 [8] = test: Inhibition of LPS-stimulated COX2 protein expression in mouse RAW264.7 cells pre-incubated for 3 hrs before LPS-stimulation for 24 hrs by Western blot method; format: functional, cell-based
Mus musculus [9] = species: Mus musculus; test: Inhibition of LPS-stimulated NFkappaB signalling activation in mouse BV2 cells assessed as reduction in IkappaB phosphorylation pre-incubated for 3 hrs before LPS-stimulation for 60 mins by Western blot method; format: cell-based
BV-2 [10] = test: Cytotoxicity in mouse BV2 cells at 10 to 80 uM by MTT assay; format: cell-based; settings: bv-2, 80 µM
BV-2 [11] = test: Anti-inflammatory activity in mouse BV2 cells assessed as reduction in LPS-induced IL-1beta mRNA expression pre-incubated for 3 hrs before LPS-stimulation for 12 hrs by RT-qPCR method; format: functional, cell-based
BV-2 [12] = test: Anti-inflammatory activity in mouse BV2 cells assessed as reduction in LPS-induced TNFalpha mRNA expression pre-incubated for 3 hrs before LPS-stimulation for 12 hrs by RT-qPCR method; format: functional, cell-based
BV-2 [13] = test: Anti-inflammatory activity in mouse BV2 cells assessed as reduction in LPS-induced nitric oxide production pre-incubated for 3 hrs before LPS-stimulation for 24 hrs by Griess reagent based ELISA; format: functional, cell-based
Mus musculus [14] = species: Mus musculus; test: Inhibition of LPS-stimulated NFkappaB DNA binding activity in mouse RAW264.7 cells assessed pre-incubated for 3 hrs before LPS-stimulation for 60 mins by ELISA; format: cell-based
BV-2 [15] = test: Anti-inflammatory activity in mouse BV2 cells assessed as reduction in LPS-induced IL12 mRNA expression pre-incubated for 3 hrs before LPS-stimulation for 12 hrs by RT-qPCR method; format: functional, cell-based
RAW264.7 [16] = test: Anti-inflammatory activity in mouse RAW264.7 cells assessed as reduction in LPS-induced TNFalpha mRNA expression pre-incubated for 3 hrs before LPS-stimulation for 12 hrs by RT-qPCR method; format: functional, cell-based
BV-2 [17] = test: Inhibition of LPS-stimulated COX2 protein expression in mouse BV2 cells pre-incubated for 3 hrs before LPS-stimulation for 24 hrs by Western blot method; format: functional, cell-based
RAW264.7 [18] = test: Anti-inflammatory activity in mouse RAW264.7 cells assessed as reduction in LPS-induced IL6 mRNA expression pre-incubated for 3 hrs before LPS-stimulation for 12 hrs by RT-qPCR method; format: functional, cell-based
RAW264.7 [19] = test: Inhibition of LPS-stimulated iNOS protein expression in mouse RAW264.7 cells pre-incubated for 3 hrs before LPS-stimulation for 24 hrs by Western blot method; format: functional, cell-based
Mus musculus [20] = species: Mus musculus; test: Inhibition of LPS-stimulated NFkappaB DNA binding activity in mouse BV2 cells assessed pre-incubated for 3 hrs before LPS-stimulation for 60 mins by ELISA; format: cell-based
Mus musculus [21] = species: Mus musculus; test: Inhibition of LPS-stimulated NFkappaB p65/p50 nuclear translocation in mouse BV2 cells assessed as increase in cytosolic p65/p50 protein level at 10 to 40 uM pre-incubated for 3 hrs before LPS-stimulation for 60 mins by Western blot method; format: cell-based
RAW264.7 [22] = test: Anti-inflammatory activity in mouse RAW264.7 cells assessed as reduction in LPS-induced nitric oxide production pre-incubated for 3 hrs before LPS-stimulation for 24 hrs by Griess reagent based ELISA; format: functional, cell-based
RAW264.7 [23] = test: Anti-inflammatory activity in mouse RAW264.7 cells assessed as reduction in LPS-induced PGE2 production pre-incubated for 3 hrs before LPS-stimulation for 24 hrs; format: functional, cell-based
BV-2 [24] = test: Inhibition of LPS-stimulated iNOS protein expression in mouse BV2 cells pre-incubated for 3 hrs before LPS-stimulation for 24 hrs by Western blot method; format: functional, cell-based

C/C=C/[C@@H]1C=CC(=O)[C@H](O)[C@]12C(=O)O[C@H](C)[C@@H]2O
21.9 µM: IC50 (BV-2 [13])
23.5 µM: IC50 (RAW264.7 [22])
27.6 µM: IC50 (BV-2 [6])
22.8 µM: IC50 (RAW264.7 [23])
active: inhibition (Mus musculus [1]) | inhibition (RAW264.7 [2]) Dose-dependent effect | inhibition (Mus musculus [4]) Dose-dependent effect | inhibition (BV-2 [5]) Dose-dependent effect | inhibition (RAW264.7 [7]) Dose-dependent effect | inhibition (RAW264.7 [8]) Dose-dependent effect | inhibition (Mus musculus [9]) Dose-dependent effect | inhibition (BV-2 [11]) Dose-dependent effect | inhibition (BV-2 [12]) Dose-dependent effect | inhibition (BV-2 [13]) Dose-dependent effect | inhibition (Mus musculus [14]) Dose-dependent effect | inhibition (BV-2 [15]) Dose-dependent effect | inhibition (RAW264.7 [16]) Dose-dependent effect | inhibition (BV-2 [17]) Dose-dependent effect | inhibition (RAW264.7 [18]) Dose-dependent effect | inhibition (RAW264.7 [19]) Dose-dependent effect | inhibition (Mus musculus [20]) Dose-dependent effect | inhibition (Mus musculus [21]) | inhibition (RAW264.7 [22]) Dose-dependent effect | inhibition (BV-2 [24]) Dose-dependent effect
Non-Toxic: Activity (RAW264.7 [3]) | Activity (BV-2 [10])
